Data on four molecules can be found in patent US20250197425A1, “2,6,9-TRISUBSTITUTED PURINES” (ASTRAZENECA AB, priority 2022, published 2025).

≈ marks a conversion by molar mass, not a printed value.

Data set [1] can be described thus: CLint assessment in human liver microsomes (HLM). It is filed as in vitro ADME. The conditions noted are these: 1 μM. The procedure, abridged:
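Microsomes preincubated 8 min with NADPH, then compound added and incubated 30 min at 37° C. Remaining compound measured by LC-MS/MS. t1/2 and CLint calculated, with CLint scaled to incubation volume per mg microsomal protein.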
In general terms: Liver microsomes are a subcellular fraction often used to study metabolism.

The test system of data set [2] is OVCAR3 cells. Nature of the data set: Cellular proliferation EdU assay, OVCAR3. It is filed as cell-based, human. The conditions noted are these: Homo sapiens, OVCAR-3, 48 h, EdU assay, two days; read-out: OVCAR3 IC50. The procedure, abridged:
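MCF-7 (800 cells/well) and OVCAR3 (1200 cells/well) in RPMI with 10% FBS exposed to compounds for two days at 37 °C.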

In data set [3] the test system is 97 targets (GPCRs, ion channels, transporters, enzymes, kinases). The data set is described as follows: Secondary pharmacology panel (Eurofins CEREP). The conditions noted are these: compared with Compound 6.
Description: Secondary pharmacology assays were performed at Eurofins CEREP using standard experimental techniques. Specifically, radioligand binding assays were used to assess the ability of test compounds to interact with G-protein coupled receptors (GPCRs), ion channels, and transmembrane transporters. Assays measuring substrate turnover or phosphorylation by isolated proteins were used for enzyme and kinase targets, allowing direct determination of the mode of action of the tested compounds.
Data set [4] addresses CDK1:CCNB1 (Homo sapiens (Human), UniProt P06493). Nature of the data set: NanoBRET assay in MCF-7 cells, CDK1. It is filed as cell-based. The conditions noted are these: NanoBRET, transfected MCF-7 cells, 2 hours; n = 1 or average; read-out: CDK1 IC50. The procedure, abridged: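 Transiently transfected MCF-7 cells expressing CDK1:CCNB1 or CDK4:CCND1 were treated with compound plus tracer (CDK1: Tracer K-9, 400 μM stock; CDK4: Tracer K-7, 100 μM stock) for 2 h at 37 °C.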
On the technique in general: Bioluminescence resonance energy transfer reports proximity on the nanometre scale.

In data set [5] the target is CDK2:CCNE1 (Homo sapiens (Human), UniProt P24941). Nature of the data set: NanoBRET assay in MCF-7 cells, CDK2. It is filed as cell-based. Conditions: transfected MCF-7 cells, 2 hours, n = 1 or average. The procedure, abridged:
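In live MCF-7 cells, compound added followed by NanoBRET TE Tracer K-9 (stock 200 μM) for CDK2, 2 h at 37° C, 5% CO2.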

The nature of data set [6]: Aqueous thermodynamic solubility, shake-flask. The format is physicochemical. Conditions: aqueous phosphate buffer, 25 °C, pH 7.4, aqueous buffer, thermodynamic from solid, phosphate buffer 0.1 M, pH 7.4, 24 hours. In short, it runs like this: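 Dried compound (after DMSO evaporation) was equilibrated in 0.1 M phosphate buffer pH 7.4 with stirring for 24 h at 25° C. Undissolved material was removed by double centrifugation, and the supernatant was diluted in water and quantified by UPLC/MS/MS.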

The test system of data set [7] is OVCAR3 cells. The data set is described as follows: Cell proliferation CyQUANT assay, OVCAR3. The format is cell-based. Conditions: Homo sapiens, OVCAR-3, 168 h; CyQUANT cell counts, 7 days.

CDK1:CCNB1, sequence (P06493 whole entry): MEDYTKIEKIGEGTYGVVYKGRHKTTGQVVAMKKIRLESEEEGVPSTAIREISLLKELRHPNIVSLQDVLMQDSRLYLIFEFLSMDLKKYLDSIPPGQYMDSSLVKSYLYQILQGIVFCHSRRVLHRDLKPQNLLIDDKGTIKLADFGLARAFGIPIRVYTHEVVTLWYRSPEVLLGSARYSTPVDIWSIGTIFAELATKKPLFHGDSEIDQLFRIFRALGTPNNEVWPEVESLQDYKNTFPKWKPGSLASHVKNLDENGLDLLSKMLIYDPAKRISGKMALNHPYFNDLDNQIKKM
CDK1:CCNB1, sequence (P14635 whole entry partner): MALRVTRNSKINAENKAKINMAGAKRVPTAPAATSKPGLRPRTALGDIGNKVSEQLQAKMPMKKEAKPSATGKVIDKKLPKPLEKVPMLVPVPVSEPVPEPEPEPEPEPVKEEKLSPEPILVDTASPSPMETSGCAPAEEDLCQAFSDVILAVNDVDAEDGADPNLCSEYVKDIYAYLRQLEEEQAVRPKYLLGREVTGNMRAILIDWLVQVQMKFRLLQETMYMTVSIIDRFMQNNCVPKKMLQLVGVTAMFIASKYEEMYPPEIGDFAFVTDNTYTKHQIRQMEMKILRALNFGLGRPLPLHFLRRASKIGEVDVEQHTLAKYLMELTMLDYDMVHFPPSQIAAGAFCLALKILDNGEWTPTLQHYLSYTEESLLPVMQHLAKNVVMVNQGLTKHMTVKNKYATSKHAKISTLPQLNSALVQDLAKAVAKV

What is called IC50 is the concentration that gives 50% inhibition. The solubility is how much of the substance goes into solution per volume. The low end stands for little dissolved substance, the high end for much dissolved substance. For `CCn1cnc2c(N[C@H]3CCN(S(=O)(=O)NC)C3)nc(-c3cccc4c3CC[C@]4(C)O)nc21` (relative stereo) [Example 3, (S)-3-((9-ethyl-2-((R*)-1-hydroxy-1-methyl-2,3-dihydro-1H-inden-4-yl)-9H-purin-6-yl)amino)-N-methylpyrrolidine-1-sulfonamide], in data set [1], the “HLM CLint” value was 45.2 µL/min/mg. Moreover, the values for the IC50 in data set [2], in data set [4] and in data set [5] were 457 nM, 636 nM and 18 nM, respectively. Moreover, the secondary pharmacology profile result in data set [3] is reported as “broadly similar secondary pharmacology to Compound 6”. Further, the solubility at 24 h in data set [6] came out at 48 µM (≈ 22.6 µg/mL).
Regarding `CCNS(=O)(=O)N1CC[C@H](Nc2nc(N[C@@H](CO)C3CC3)nc3c2ncn3C)C1` [Example 19, (S)-3-((2-(((R)-1-cyclopropyl-2-hydroxyethyl)amino)-9-methyl-9H-purin-6-yl)amino)-N-ethylpyrrolidine-1-sulfonamide], the IC50 stood at 276 nM in data set [2], 342 nM in data set [4], 27 nM in data set [5] and 201 nM in data set [7].
Taken in the same sequence, the figures for `CCNS(=O)(=O)N1CC[C@H](Nc2nc(N[C@@H](CC)[C@@H](C)O)nc3c2ncn3C)C1` [Example 53, (S)—N-ethyl-3-((2-(((2R,3S)-2-hydroxypentan-3-yl)amino)-9-methyl-9H-purin-6-yl)amino)pyrrolidine-1-sulfonamide] were 616 nM, 1800 nM, 43 nM and 373 nM.
For `CCn1cnc2c(N[C@@H]3CN(S(=O)(=O)c4ncc[nH]4)C[C@H]3F)nc(N[C@@H](CO)C3CC3)nc21` (relative stereo) [Example 17, (R)-2-((6-(((3R*,4R*)-1-((1H-imidazol-2-yl)sulfonyl)-4-fluoropyrrolidin-3-yl)amino)-9-ethyl-9H-purin-2-yl)amino)-2-cyclopropylethan-1-ol], in data set [1], the “HLM CLint” value was 46 µL/min/mg. In addition, the IC50 came to 44 nM in data set [2], 114 nM in data set [4], 9 nM in data set [5] and 53 nM in data set [7]. Moreover, the solubility at 24 h in data set [6] came out at 280 µM (≈ 134 µg/mL).
